Assay results: patent US8575103B2, “Peptides and methods for inhibiting G alpha protein signaling” (The Board of Trustees of the University of Illinois, priority 2009, dated 2013)
“Also recorded” adds a separate entry of the source. Where no end group is shown, it is not given here.

Key:
α11bβ3 integrin [1] = experiment: platelet α11bβ3 integrin activation, FITC-PAC1 antibody binding by flow cytometry; assay type: cell-based, human; details: 150 μM peptide, 0.5 μM U46619, FITC-PAC1, compared to 500 μM Random Peptide
Method: The platelet count in human PRP was adjusted to 1×10^6 platelets/ml. The platelets were then labeled with FITC-conjugated PAC1 antibody against activated α11bβ3 integrin, and the samples were analyzed by flow cytometry in a Beckman Coulter CyAn II Flow Cytometer. Trace (a) depicts resting platelets labeled with FITC-PAC-1 antibody. Trace (b) depicts platelets stimulated with 0.5 μM U46619 and labeled with FITC-PAC1 antibody. Trace (c) depicts platelets incubated with 500 μM of the Random Peptide (SEQ ID NO:9), followed by 0.5 μM U46619 stimulation and FITC-PAC1 labeling. Trace (d) depicts platelets incubated with 150 μM of the G13SR2pep, followed by 0.5 μM U46619 stimulation and FITC-PAC1 labeling.
Subsequent experiments examined the effect of G13SR2pep, (SEQ ID NO:5) on human platelet α11bβ3 integrin activation as measured by FITC-PAC-1 antibody binding.

CD1 mice = experiment: bleeding time in mice after intravenous administration; assay type: in vivo; details: 100 μl of 3.7 mM intravenously via tail vein, tail cut five minutes after administration
Method: Briefly, CD1 mice (25 grams) were anesthetized with sodium pentobarbital, and either 100 μl of vehicle or 100 μl of a vehicle solution containing 3.7 mM of each peptide or aspirin was administered intravenously via the tail vein. Five minutes following administration, the tail was cut 0.5 cm from the tip and immersed in PBS buffer (pH 7.4; 37EC). Cessation of bleeding was observed visually and the total bleeding time was recorded.

talin = molecular target: T1, talin (Homo sapiens, UniProt Q9Y490); experiment: peptide affinity column with solubilized human platelets, western blot for talin; assay type: binding
T1 construct: also purified whole talin (220 kD), the talin head domain (47 kD) and kindlin 3 (72 kD); endogenous in cells; host or cells: solubilized human platelets
From the text: (§1) On this basis, subsequent experiments examined whether G13SR2pep peptide (SEQ ID NO:5) does indeed directly interact with α11bβ3 and/or one of its associated proteins in human platelets. In this respect, platelet α11bβ3 integrin is known to exist in a complex with two cytoplasmic proteins, i.e., talin and kindlin-3 (Tadokoro, et al. (2003) Science 302:103-6; Moser, et al. (2008) Nature Med. 14:325-30). To determine whether G13SR2pep, (SEQ ID NO:5) interacts with any of these proteins (or with the entire α11bβ3, talin, kindlin-3 complex), peptide affinity columns using G13SR2pep (SEQ ID NO:5) were employed. The affinity purified protein(s) from solubilized human platelets that specifically bound to the G13SR2pep peptide were eluted, and analyzed by western blot for α11bβ3 integrin, talin and kindlin-3. In similar experiments, the eluates from a peptide column using the G13SR2-Random Peptide (SEQ ID NO:9) were also analyzed. Immunoblot analysis with the α11bβ3 antibodies (Abcam) detected two bands, one at 130 kD and the other at 115 kD in solubilized human platelets as well as in the elution fraction obtained from the G13SR2pep (SEQ ID NO:5) affinity column. […] This was supported by similar experiments using talin antibodies and the kindlin 3 antibody (Abcam).
Thus, the binding of G13SR2pep (SEQ ID NO:5) to the talin head domain serves as the basis for the ability of G13SR2pep to inhibit α11bβ3 integrin activation and platelet aggregation. As such, peptides or specific compounds fashioned to mimic or modify the switch region interaction with talin, α11bβ3 integrin or other α11bβ3 integrin-associated proteins would have profound effects on thrombosis and other integrin-linked disease processes.

Src = Src activation in platelets; assay type: cell-based, human; details: 250 μM peptide; induced by TRAP1 (10 μM), U46619 (0.5 μM) or ADP (10 μM)
Method: (§2) To further investigate the mechanism(s) by which G13SR2pep (SEQ ID NO:5) inhibited α11bβ3 integrin activation, the effect of G13SR2pep on calcium flux, RhoA activation, Src activation and changes in cAMP levels was determined using conventional assays.

α11bβ3 integrin [2] = molecular target: T2, α11bβ3 integrin (Homo sapiens, UniProt P05106+P08514+Q9Y490); experiment: peptide affinity column with solubilized human platelets, western blot for α11bβ3; assay type: binding; details: immunoblot, bands at 130 kD and 115 kD
T2 construct: detected two bands, one at 130 kD and the other at 115 kD in solubilized human platelets; endogenous in cells; host or cells: solubilized human platelets
From the text: as §1

cAMP levels = cAMP levels in human platelet-rich plasma; assay type: cell-based; details: 250 μM peptide
Method: as §2

calcium mobilization = experiment: calcium flux / calcium mobilization in platelets; assay type: cell-based, human; details: 250 μM peptide; induced by TRAP1 (10 μM), U46619 (0.5 μM) or ADP (10 μM)
Method: as §2

RhoA = RhoA activation in platelets; assay type: cell-based, human; details: 250 μM peptide; induced by TRAP1 (10 μM), U46619 (0.5 μM) or ADP (10 μM)
Method: as §2

human platelets = experiment: human platelet aggregation in platelet rich plasma (PRP); assay type: cell-based; details: PRP
kindlin-3 = molecular target: T3, kindlin-3 (Homo sapiens, UniProt Q86UX7); experiment: peptide affinity column with solubilized human platelets, western blot for kindlin-3; assay type: binding; details: immunoblot, kindlin 3 (72 kD)
T3 construct: also purified whole talin (220 kD), the talin head domain (47 kD) and kindlin 3 (72 kD); endogenous in cells; host or cells: solubilized human platelets
From the text: as §1

T1 sequence (Q9Y490 1-433): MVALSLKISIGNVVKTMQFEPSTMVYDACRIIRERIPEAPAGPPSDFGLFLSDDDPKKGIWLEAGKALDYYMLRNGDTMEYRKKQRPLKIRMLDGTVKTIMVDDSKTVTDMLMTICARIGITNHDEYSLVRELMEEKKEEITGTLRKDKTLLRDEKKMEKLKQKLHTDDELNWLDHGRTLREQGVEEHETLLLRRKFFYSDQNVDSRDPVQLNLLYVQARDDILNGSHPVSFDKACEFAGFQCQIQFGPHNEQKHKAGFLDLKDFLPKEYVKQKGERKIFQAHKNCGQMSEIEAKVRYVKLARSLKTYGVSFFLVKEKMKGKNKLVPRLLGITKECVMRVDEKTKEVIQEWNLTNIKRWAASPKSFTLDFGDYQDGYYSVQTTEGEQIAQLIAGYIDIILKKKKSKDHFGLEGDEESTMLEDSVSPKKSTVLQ

VGGQRSERKRWFECFDS [G13SR2pep, non-myristoylated G13 Switch Region 2 peptide]
inhibition of U46619-mediated activation of α11bβ3 integrin (α11bβ3 integrin [1]): dramatically inhibited
bleeding time (CD1 mice): increased bleeding times; also recorded: substantially increases
talin in affinity column eluate (talin; solubilized human platelets, immunoblot, whole talin (220 kD), talin head domain (47 kD)): purified
binding to talin head domain (talin; α11bβ3-talin-kindlin 3 complex dissociated, affinity column eluates): binding partner
Src activation (Src): did not alter
α11bβ3 in affinity column eluate (interaction with peptide) (α11bβ3 integrin [2]): directly interacts
cAMP levels (cAMP levels): did not alter
calcium mobilization (calcium mobilization): did not alter
RhoA activation (RhoA): did not alter
platelet aggregation induced by the divalent cation ionophore A23187 (human platelets; 150 μM peptide, 10 μM A23187): capable of blocking
inhibition of human platelet aggregation stimulated by U46619 (human platelets; 75-150 μM G13SR2pep (Random Peptide 500 μM), 0.5 μM U46619): dose-dependent inhibition
inhibition of human platelet aggregation stimulated by ADP (human platelets; 75-150 μM G13SR2pep (Random Peptide 500 μM), 10 μM ADP): dose-dependent inhibition
inhibition of human platelet aggregation stimulated by TRAP1 (human platelets; 75-150 μM G13SR2pep (Random Peptide 500 μM), 15 μM TRAP1): dose-dependent inhibition
inhibition of human platelet aggregation stimulated by TRAP4 (human platelets; 75-150 μM G13SR2pep (Random Peptide 500 μM), 50 μM TRAP4): dose-dependent inhibition
kindlin 3 in affinity column eluate (kindlin-3): purified
